The source of these data is publication PMC3534288 (BMC Biophysics, 2012).

The conditions of series [1]: sulfonamide group, 25°C; cited from earlier work.
The nature of series [2]: Protonation of inhibitor sulfonamide group (ITC titration with acid, pKa). The series is classed as physicochemical. On the procedure:
Dissection of contribution from inhibitor protonation requires a set of experiments with pure inhibitor in the absence of protein to determine the pKa and the enthalpy of inhibitor protonation. The deprotonation pKa could be determined by pH titration as previously explained. The enthalpy of protonation is determined by titrating alkaline solution of the inhibitor with acid. […] Pure crystalline inhibitor is in protonated electrostatically neutral form. Therefore, 1.5 equivalent of NaOH is added to the inhibitor solution to make it deprotonated. […] This enthalpy of the second transition is the enthalpy of interest.
On the technique in general: ITC needs no label: the signal is the heat of the interaction.

For series [3], the target named is T1, hCA XIII (Homo sapiens, UniProt Q8N1Q1).
T1 construct: made in house; host or cells: Escherichia coli
T1 sequence (Q8N1Q1 whole entry): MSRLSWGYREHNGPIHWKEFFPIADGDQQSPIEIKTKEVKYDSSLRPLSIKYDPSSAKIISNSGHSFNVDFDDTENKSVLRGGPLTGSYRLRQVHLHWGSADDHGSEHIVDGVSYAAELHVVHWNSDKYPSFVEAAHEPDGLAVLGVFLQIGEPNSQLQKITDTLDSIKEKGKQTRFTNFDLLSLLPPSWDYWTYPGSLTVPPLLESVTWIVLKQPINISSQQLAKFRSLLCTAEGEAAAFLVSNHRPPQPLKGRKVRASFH
The series can be described thus: Intrinsic binding parameters by dissection of binding-linked protonation reactions. Conditions: deprotonated inhibitor anion to protonated zinc-bound water form, 25°C. The text has this: Here we use the same formalism to dissect protonation reactions as previously described. The intrinsic binding constant is related to the observed binding constant and the fractions of active binding species:
(1) Kb=Kb_obs/fRSO2NH^−fCAZnH2O
Where the fractions deprotonated sulfonamide and protonated CA as a function of pH are:
(4) ΔbHintr=ΔbHobs−ninhΔb_proton_inhH−nCAΔb_proton_CAH+nΔb_proton_bufH
The intrinsic entropy of binding was obtained by subtracting Gibbs free energy from the enthalpy using standard thermodynamic equations. The intrinsic heat capacity of binding could be determined by carrying out all or part of ITC and TSA experiments at several temperatures.

Series [4] addresses T1, hCA XIII. Nature of the series: Isothermal titration calorimetry (ITC) of inhibitor binding to hCA XIII, observed parameters.
Experimental: ITC experiments were performed using a VP-ITC instrument (Microcal, Inc., GE-Healthcare, Northampton, MA, USA). For ligand-protein binding experiments 5–20 μM (usually 10) protein solution in the cell and 50–200 μM (usually 100) ligand solution in the syringe were used. A typical experiment consisted of 25–30 injections (usually 25), 10 μL each, with 3–5 min (usually 4 min) intervals between injections. Experiments were performed at different temperatures in various buffers containing 50 mM NaCl and 0.5-2% DMSO concentration. All experiments were repeated at least twice. For the determination of ligand binding at various pHs, the solution pH was carefully checked in the presence of protein and ligand, in the cell and syringe, respectively.
The next series addresses CA II. Conditions: pH 7.0; read-out: observed Kis and Kds; cited from earlier work.

Read-outs that look alike come from different tables or passages of the source.

Broadly, the pKa is the pH at which an ionisable group is half protonated. Regarding `CCOc1ccc2nc(S(N)(=O)=O)sc2c1` [EZA, ethoxzolamide], the pKa in series [1] was 8.0. Also, the Δb_protonCp in series [2] (slope of protonation enthalpy versus temperature) is 88.7 J/(mol × K). In series [2] (sulfonamide group, 25°C), this compound returned a Ka of 10 nM, a TΔb_protonS of 16.2 kJ/mol, a Δb_protonG of -45.7 kJ/mol and a Δb_protonH of -29.5 kJ/mol. In series [2] (sulfonamide group, 25°C), the Δb_protonS is recorded as 54.2 J/(mol × K).

With `NS(=O)(=O)C(F)(F)F` [TFMSA, trifluoromethanesulfonamide], on hCA XIII [3], the TΔbSintr stood at 10.2 kJ/mol, the ΔbGintr was -43.8 kJ/mol, the ΔbHintr is -33.5 kJ/mol and the ΔbSintr is recorded as 34.3 J/(mol × K). Moreover, on hCA XIII [4] (pH 7.0, 25°C, slope of observed enthalpy versus buffer protonation enthalpy), the “net number of uptaken or released protons upon binding” value is on record as “approximately equal to zero”. In addition, the “observed enthalpies of binding, span over pH and buffers” value at hCA XIII [4] (sodium phosphate and TRIS chloride buffers, 25°C, as a function of pH) is −10 to −70 kJ/mol.

Regarding `CC(=O)Nc1nnc(S(N)(=O)=O)s1` [AZM, acetazolamide], in series [1], the Ka was 50 nM, the TΔb_protonS is recorded as 18.7 kJ/mol, the pKa was 7.30 and the Δb_protonG was -41.7 kJ/mol. For the same compound, in series [1], the Δb_protonH was -23.0 kJ/mol and the Δb_protonS is reported as 62.6 J/(mol × K). Moreover, on hCA XIII [3], the TΔbSintr was -8.9 kJ/mol, the ΔbGintr was -41.5 kJ/mol, the ΔbHintr is -50.4 kJ/mol and the ΔbSintr is −29.8 J/(mol × K).

`CS(N)(=O)=O` [methanesulfonamide]: the Kd at CA II was 300 µM.
